Measurements as given in patent US12029725B2 (priority 2019, dated 2024).
“Also recorded” adds a separate entry of the source. Where two headings read alike, the source gives them in different places.

Key:
[1] = Pharmacokinetics of RTX after intra-articular injection in the Phase 1b study; format: in vivo, human; conditions: for Number of RTX subjects with quantifiable PK / Number of subjects with BQL of RTX: 6 subjects with PK measured; for Cmax / AUC(0-t): human, in vivo, other: intra-articular injection
[2] = tested on: pain due to moderate to severe osteoarthritis of the knee; assay: Phase 1b double-blind study of intra-articular resiniferatoxin versus placebo: efficacy (WOMAC and NPRS pain scores); format: in vivo, human; conditions: for Patient reported WOMAC A1 and NPRS pain scores: all dose levels
Protocol: The study, described as “Phase 1b double-blind study assesses safety and preliminary efficacy of intra-articular administration of resiniferatoxin versus placebo for the treatment of pain due to moderate to severe osteoarthritis of the knee,” was performed.
Subjects with moderate to severe osteoarthritis diagnosed based on ACR diagnostic criteria and X-ray imaging were enrolled in a phase 1b double-blind study to assess the safety, tolerability and preliminary efficacy of intra-articular administration of resiniferatoxin or placebo for the treatment of moderate to severe pain due to osteoarthritis of the knee. Patients met the following criteria: (1) baseline pain score in the index knee (WOMAC pain subscale question A1) of ≥5 but ≤9 during four weeks prior to enrollment; (2) mean NPRS score of ≥5 but ≤9 during 8 of 10 days prior to enrollment; and (3) pain lasted for at least 6 months prior to enrollment.
As of August 2019, the enrollment of all planned dose level cohorts was completed. 40 patients have enrolled in these dose-escalation cohorts, 30 receiving RTX and 10 receiving placebo (multicenter, randomized, double-blind, placebo controls). In each cohort, six patients received intraarticular RTX and two received a saline control (placebo arm). 69% are female and 31% are male. The median age is 62 (range 44-83), and the baseline NPRS A1 score was mean 6.5 (S.D. 1.5).
The patients were treated with a one-time intraarticular dose of resiniferatoxin (RTX) or saline placebo at escalating dose level cohorts of 5 μg, 12.5 μg, 20 μg and 30 μg in 5 or 10 mL in dose escalation cohorts. For each 8-patient cohort, the first patient was considered a sentinel patient and received open-label drug. Upon confirmation of safety in the sentinel patient, the remaining 7 patients in the cohort were enrolled in a blinded fashion, 2 patients receiving placebo and 5 patients receiving RTX. After confirmation of safety at each dose level, the next higher dose level was opened for enrollment. Patients were followed for safety and efficacy over a 12-week period. Patients had the option to provide additional follow-up to 52 weeks. Efficacy was assessed using the patient reported WOMAC pain scores and NPRS pain scores. As per protocol, the treatment assignment could be unblinded at week 12.

[3] = tested on: subjects with moderate to severe osteoarthritis of the knee; conditions: for Procedure-associated pain (post-procedural pain and injection site pain), patients reporting: RTX patients; for Procedure-associated pain reported as mild / Procedure-associated pain reported as moderate: RTX treated patients
[4] = 30 μg, Cohort 6, 30 μg/5 or 10 ml, subject with quantifiable PK

SMILES: C=C(C)[C@]12C[C@@H](C)[C@@]34O[C@](Cc5ccccc5)(O[C@@H]1[C@@H]3C=C(COC(=O)Cc1ccc(O)c(OC)c1)C[C@]1(O)C(=O)C(C)=C[C@@H]41)O2 [RTX, resiniferatoxin]
- Number of RTX subjects with quantifiable PK ([1]; Cohort 1, 5 μg/5 ml): 1
- Number of subjects with BQL of RTX ([1]; Cohort 1, 5 μg/5 ml): 5
- Number of RTX subjects with quantifiable PK ([1]; Cohort 4, 12.5 μg/5 ml): 0
- Number of subjects with BQL of RTX ([1]; Cohort 4, 12.5 μg/5 ml): 6
- Number of RTX subjects with quantifiable PK ([1]; Cohort 4a, 12.5 μg/10 ml): 1
- Number of subjects with BQL of RTX ([1]; Cohort 4a, 12.5 μg/10 ml): 5
- Number of RTX subjects with quantifiable PK ([1]; Cohort 5, 20 μg/5 ml): 2
- Number of subjects with BQL of RTX ([1]; Cohort 5, 20 μg/5 ml): 4
- Number of RTX subjects with quantifiable PK ([1]; Cohort 6, 30 μg/5 or 10 ml): 1
- Number of subjects with BQL of RTX ([1]; Cohort 6, 30 μg/5 or 10 ml): 5
- Detectability of RTX (pharmacokinetic data) ([1]; all PK cohorts, intra-articular injection): undetectable in most patients
- Cmax ([1]; 5 μg, Cohort 1, 5 μg/5 ml, subject with quantifiable PK): 0.121 ng/mL
- AUC(0-t) ([1]; 5 μg, Cohort 1, 5 μg/5 ml, subject with quantifiable PK, read-out: AUC (0-6 hr)): 0.509 ng·h/mL
- Cmax ([1]; 12.5 μg, Cohort 4a, 12.5 μg/10 ml, subject with quantifiable PK): 0.103 ng/mL
- AUC(0-t) ([1]; 12.5 μg, Cohort 4a, 12.5 μg/10 ml, subject with quantifiable PK, read-out: AUC (0-6 hr)): 0.146 ng·h/mL
- Cmax ([1]; 20 μg, Cohort 5, 20 μg/5 ml, first subject with quantifiable PK): 0.071 ng/mL
- AUC(0-t) [1, 4]: 0.0854 ng·h/mL
- Cmax [1, 4]: 0.0878 ng/mL
- Pain at walking (10 point WOMAC pain scale), mean pain score lower versus control ([2]; 5 μg RTX, Day 84): 4.7 points
- WOMAC A-C pain index, least squares mean difference versus placebo (MMRM) ([2]; 12.5 μg dose, 12 weeks, p=0.016, N=6): −14.20
- WOMAC A1 score, least squares mean difference versus placebo (MMRM) ([2]; 12.5 μg dose, 12 weeks, p=0.029, N=6): −2.70
- NPRS score, least squares mean difference versus placebo (MMRM) ([2]; 12.5 μg dose, 12 weeks, p=0.051, N=6): −2.29
- Weekly average NPRS pain score, mean change (standard deviation) from baseline to week 12 ([2]; Cohort 4, 12.5 μg/5 ml, FIG. 2): −5.30 (1.94)
- Weekly average WOMAC question A1, mean change (standard deviation) from baseline to week 12 ([2]; Cohort 4, 12.5 μg/5 ml, FIG. 3): −5.67 (1.51)
- Patient reported WOMAC A1 and NPRS pain scores ([2]; all cohorts incl. volume and dose expansion cohorts): reduction
- Improvements in patients of all dose groups ([2]; all dose groups, ongoing trial): rapid and sustainable improvements
- Patient reported WOMAC A1 and NPRS pain scores ([2]; dose escalation cohorts (N=40), available unblinded data): reduction
- Sustained clinical benefits / pain reduction sustained over time ([2]; lowest dose (5 μg), determined at 84 days): sustained clinical benefits; also recorded: sustained over time
- Onset of pain relief ([2]; lowest dose tested, single 5 μg RTX injection into the knee joint): day following injection; also recorded: the day following drug administration
- Patients reporting positive clinical benefits in pain reduction ([2]; patients treated with the active drug, to date): a majority
- Patients achieving >70% reduction in pain versus baseline, NPRS score ([2]; pooled RTX-treated patients): 41%
- Patients achieving >70% reduction in pain versus baseline, WOMAC A1 score ([2]; pooled RTX-treated patients): 54%
- Weekly average NPRS pain score, change from baseline to week 12, difference versus pooled placebo ([2]; week 12, range over dose level cohorts): −0.34 to −2.29
- WOMAC question A1 (pain on walking on flat surface), least squares mean difference in change from baseline relative to placebo ([2]; week 12, range over dose level cohorts, 9 placebo, 28 RTX): −0.38 to −2.70 points
- DMC assessment ([3]; Cohort 1, 5 μg): No DLTs
- Notable AE's ([3]; Cohort 1, 5 μg): None
- DMC assessment ([3]; Cohort 2, 12.5 μg): No DLTs
- Notable AE's ([3]; Cohort 2, 12.5 μg): None
- DMC assessment ([3]; Cohort 3, 12.5 μg (in 10 ml)): No DLTs
- Notable AE's ([3]; Cohort 3, 12.5 μg (in 10 ml)): None
- DMC assessment ([3]; Cohort 4, 20 μg): No DLTs
- Notable AE's ([3]; Cohort 4, 20 μg): None
- DMC assessment ([3]; Cohort 5, 30 μg): No DLTs
- Notable AE's ([3]; Cohort 5, 30 μg): None
- TEAE Areflexia, Mild: frequency ([3]; RTX All Cohorts (N = 57)): (3.5%)
- TEAE Areflexia, Mild: number of subjects ([3]; RTX All Cohorts (N = 57)): 2
- TEAE Areflexia, Moderate: frequency ([3]; RTX All Cohorts (N = 57)): (3.5%)
- TEAE Areflexia, Moderate: number of subjects ([3]; RTX All Cohorts (N = 57)): 2
- TEAE Arthralgia, Mild: frequency ([3]; RTX All Cohorts (N = 57)): (7.0%)
- TEAE Arthralgia, Mild: number of subjects ([3]; RTX All Cohorts (N = 57)): 4
- TEAE Arthralgia, Moderate: frequency ([3]; RTX All Cohorts (N = 57)): (1.8%)
- TEAE Arthralgia, Moderate: number of subjects ([3]; RTX All Cohorts (N = 57)): 1
- TEAE EOG QTc prolonged, Mild: frequency ([3]; RTX All Cohorts (N = 57)): (5.3%)
- TEAE EOG QTc prolonged, Mild: number of subjects ([3]; RTX All Cohorts (N = 57)): 3
- TEAE Headache, Mild: frequency ([3]; RTX All Cohorts (N = 57)): (5.3%)
- TEAE Headache, Mild: number of subjects ([3]; RTX All Cohorts (N = 57)): 3
- TEAE Hypertension, Mild: frequency ([3]; RTX All Cohorts (N = 57)): (7.0%)
- TEAE Hypertension, Mild: number of subjects ([3]; RTX All Cohorts (N = 57)): 4
- TEAE Hypertension, Moderate: frequency ([3]; RTX All Cohorts (N = 57)): (7.0%)
- TEAE Hypertension, Moderate: number of subjects ([3]; RTX All Cohorts (N = 57)): 4
- TEAE Hypoesthesia, Mild: frequency ([3]; RTX All Cohorts (N = 57)): (8.8%)
- TEAE Hypoesthesia, Mild: number of subjects ([3]; RTX All Cohorts (N = 57)): 5
- TEAE Nausea, Mild: frequency ([3]; RTX All Cohorts (N = 57)): (31.6%)
- TEAE Nausea, Mild: number of subjects ([3]; RTX All Cohorts (N = 57)): 18
- TEAE Nausea, Moderate: frequency ([3]; RTX All Cohorts (N = 57)): (3.5%)
- TEAE Nausea, Moderate: number of subjects ([3]; RTX All Cohorts (N = 57)): 2
- TEAE Procedural pain, Mild: frequency ([3]; RTX All Cohorts (N = 57)): (64.9%)
- TEAE Procedural pain, Mild: number of subjects ([3]; RTX All Cohorts (N = 57)): 37
- TEAE Procedural pain, Moderate: frequency ([3]; RTX All Cohorts (N = 57)): (26.3%)
- TEAE Procedural pain, Moderate: number of subjects ([3]; RTX All Cohorts (N = 57)): 15
- TEAE Vomiting, Mild: frequency ([3]; RTX All Cohorts (N = 57)): (14.0%)
- TEAE Vomiting, Mild: number of subjects ([3]; RTX All Cohorts (N = 57)): 8
- TEAE Vomiting, Moderate: frequency ([3]; RTX All Cohorts (N = 57)): (3.5%)
- TEAE Vomiting, Moderate: number of subjects ([3]; RTX All Cohorts (N = 57)): 2
- Dose-limiting toxicities ([3]; all cohorts): No dose-limiting toxicities
- Maximum tolerated dose ([3]; all cohorts): not identified
- Relationship between adverse events and dose ([3]; all cohorts): no apparent relationship
- Procedure-associated pain (post-procedural pain and injection site pain), patients reporting ([3]; all cohorts): 91%
- Procedure-associated pain reported as mild ([3]; all cohorts): 65%
- Procedure-associated pain reported as moderate ([3]; all cohorts): 26%
- Dose-limiting toxicities ([3]; dose escalation cohorts (N=40)): No dose-limiting toxicities
- Maximum tolerated dose ([3]; dose escalation cohorts (N=40)): not identified
- Relationship between adverse events and dose ([3]; dose escalation cohorts (N=40)): no apparent relationship
- Procedure-associated pain (post-procedural pain and injection site pain), patients reporting ([3]; dose escalation cohorts (N=40)): 100%
- Procedure-associated pain reported as mild ([3]; dose escalation cohorts (N=40)): 55%
- Procedure-associated pain reported as moderate ([3]; dose escalation cohorts (N=40)): 45%
- Adverse events of interest ([3]; initial results, any dose group): nor adverse events of interest noted
- Dose limiting toxicities (DLTs) ([3]; initial results, any dose group, to date): No dose limiting toxicities
